# Experimental data reported in patent US20100036088A1, “Selective poly-N-substituted glycine antibiotics” (priority 2008, published 2010).
# Marks after values point to notes of the source that are not given here. Square brackets hold non-standard residues; d marks the D form. Peptide text beside a SMILES is read from it. Nspe = C[C@H](NCC(=O)O)c1ccccc1; Nphe = O=C(O)CNCc1ccccc1; Nlys = NCCCCNCC(=O)O
# Assays:
# human erythrocytes = experiment: Hemolysis assay; type: cell-based
# Description: Hemolysis assays. Erythrocytes were isolated from freshly drawn, heparanized human blood and resuspended to 20 vol % in PBS (pH 7.4). In a 96-well microtiter plate, 100 μL erythrocyte suspension was added to 100 μL peptoid solution in PBS (prepared by 1:2 serial dilutions), or 100 μL PBS in the case of negative controls. 100% hemolysis wells contained 100 μL blood cell suspension with 100 μL 0.2 vol % Triton X-100. The plate was incubated for 1 h at 37° C., then each well was diluted with 150 μL PBS. The plate was then centrifuged at 1200 g for 15 min, 100 μL of the supernatant from each well transferred to a fresh microtiter plate, and A350 measured.
# Hemolysis assays. Erythrocytes were isolated from freshly drawn, heparanized human blood and resuspended in PBS (pH 7.4) to make a 20% volume suspension. Peptoid solutions were prepared by serial dilution (2:1) in a 96-well microtiter plate. For test wells, 100 μL of erythrocyte suspension was added to 100 μL of peptoid solution in PBS; PBS without peptoid was used as the negative control and 0.2 vol % Triton X-100 as the positive control that indicates 100% hemolysis. After 1 hour incubation at 37° C., each well was diluted with 150 μL PBS. Plates were then centrifuged at 1,200×g for 15 minutes to pellet the cells. 30 μL of the supernatant from each well were transferred to the corresponding well of a second 96-well plate that contains 70 μL PBS.
# B. subtilis (ATCC 6633) = type: cell-based; settings: ATCC 6633
# Description: (§1) Whereas the preceding generation of molecules was designed to elucidate structure function relationships of specific molecular parameters (chirality, length, hydrophobicity, etc.), another generation compounds were designed explicitly to explore effects on selectivity. Antimicrobial activity of these compounds was tested against bacterial strains E. coli (ATTC 35218) and B. subtilis (ATTC 6633) in cation-adjusted MHB using the microdilution protocols previously described. The sequences, antimicrobial activities, hemolytic activities, and metabolic inhibitory concentrations against NIH 3T3 mouse fibroblast cells are summarized in Table 3 and the rationale of their design is described below.
# (§2) The potencies of all compounds were determined against representative Gram-negative (E. coli ATCC 35218) and Gram-positive (B. subtilis ATCC 6633) biosafety level 1 (BSL1) organisms. In addition to hemolytic activity, the conventional measure of toxicity to mammalian cells, the effect of each ampetoid on NIH 3T3 mouse fibroblast cells was determined using the MTS tetrazolium salt-based calorimetric assay. While hemolysis measures the degree to which erythrocytes are lysed, the MTS assay indirectly quantifies the extent to which cellular metabolic activity is inhibited.
# (§3) Screening antibacterial assays. MICs were determined in 96-well microtiter plates in accordance with CLSI M7-A6 protocols. Peptoid solutions with 50 μL total volume were prepared using 2:1 serial dilutions. 50 μL of bacteria inoculum (1×10^6 CFU/mL) prepared in cation-adjusted Mueller-Hinton broth (CAMHB) was added to test wells. Control wells contained 100 μL MHB (no growth) or 50 μL inoculums with 50 μL MHB with no peptoid. […] Reported values were reproducible over three experiments, each containing two parallel trials.
# E. coli (ATCC 35218) = type: cell-based; settings: ATCC 35218
# Description: as §1, §2, §3
# [1] = MTS assay, metabolic inhibition; type: cell-based, mouse
# Description: as §2
# MTS assays. NIH/3T3 cells (ATCC Corporation) cultured at 37° C. and 5% CO2 in complete Dulbecco's modified eagle's media (CDMEM) supplemented with 1% sodium pyruvate, 1% penicillin-streptomycin, 1.5 g/L NaHCO3, and 10% fetal bovine serum. Cells were seeded at a density of 5,000 cells per well for NIH/3T3 cells in 96-well plates (100 μl total volume). A peptoid solution plate (100 μL total volume per well) was prepared by serial dilution of aqueous peptoid stock solution in Hank's balanced salt solution (HBSS) media. The day-old cell monolayers were washed with HBSS and media was replaced with 100 μL HBSS. The contents of the peptoid solution plate were transferred onto corresponding wells of the cell monolayer plate, and 40 μL MTS reagent (Promega, Inc.) was added to each well. After incubating for 3 hours at 37° C., absorbance at 490 nm was determined. […] The average of six replicates is reported.
# B. subtilis = type: cell-based
# Description: (§4) Antibacterial assays. MICs were determined according to CLSI M7-A6 protocols in a 96-well microtiter plate. In test wells, 50 μL bacterial inoculum (5×10^5 CFU/ml) in Mueller-Hinton broth (MHB) was added to 50 μL peptoid solution in MHB (prepared by 1:2 serial dilutions). Positive controls contained 50 μL inoculum and 50 μL MHB without peptoid. […] MIC values reported were reproducible between three independent experimental replicates, each consisting of two parallel trials. Broad-spectrum antimicrobial susceptibility testing was performed against BSL2 pathogens by Nova Biologicals, Inc. (Conroe, Tex.).
# as §3
# E. coli = type: cell-based
# Description: as §4, §3
# [2] = system: Candida albicans (SC5314); type: cell-based, C. albicans; settings: SC5314, 48 h
# Description: Additionally, in order to characterize possible antifungal activity, a library of alkylated compounds was tested against C. albicans, a representative fungal strain.
# Antifungal Assays. MICs were determined using the broth microdilution assay given by CLSI M27-A2 protocols. Candida albicans (SC5314) was grown on Sabouraud dextrose agar for 24 hours at 30° C. Cells were suspended in 0.145 M saline, and the cell concentration was adjusted to 3×10^6 cells/mL. After adjusting the cell concentration, the suspension was diluted 1:1000 with RPMI 1640 (with L-glutamine and without sodium bicarbonate, Invitrogen) buffered with 0.145 M 3-(N-morpholino) propanesulfonic acid (MOPS). Two-fold serial dilutions of peptoids, peptides, and amphotericin B (Calbiochem) were prepared in RPMI 1640 and mixed with an equal volume of the cell suspension in 96-well plates. The final testing concentrations for the peptoids and peptides were 0.20 to 100 μM, and concentrations for amphotericin B were 0.031 to 16 μM. Growth controls and sterility controls were also included. Plates were incubated for 48 hours at 35° C., and growth of C. albicans was inspected visually to determine the MICs. The MIC for each compound was defined as the lowest concentration with no visible fungal growth. Experiments were performed in duplicate on two separate days.
smiles,measurement,setting,value
"C[C@H](NCC(=O)N(CCCCN)CC(=O)N(CC(=O)N(CCCCN)CC(=O)N(CCCCN)CC(=O)N(CC(=O)N(CC(=O)N(CCCCN)CC(=O)N(CC(=O)N(CCCCN)CC(=O)N(CCCCN)CC(=O)N(CC(=O)N(CC(=O)N(CCCCN)CC(=O)N(CC(N)=O)[C@@H](C)c1ccccc1)[C@@H](C)c1ccccc1)[C@@H](C)c1ccccc1)[C@@H](C)c1ccccc1)[C@@H](C)c1ccccc1)[C@@H](C)c1ccccc1)[C@@H](C)c1ccccc1)c1ccccc1 [1B15mer-Nlys4,10, H-(Nspe-Nlys-Nspe-Nlys-Nlys-Nspe)2-Nspe-Nlys-Nspe-NH2] (H-[Nspe][Nlys][Nspe][Nlys][Nlys][Nspe][Nspe][Nlys][Nspe][Nlys][Nlys][Nspe][Nspe][Nlys][Nspe]-NH2)",HD10,human erythrocytes,>200/>200 μM
same,HD50,human erythrocytes,>200/>200 μM
same,B. subtilis MIC,B. subtilis (ATCC 6633),0.78 µM
same,E. coli MIC,E. coli (ATCC 35218),50 µM
same,IC50,[1],16 µM
"C[C@H](NCC(=O)N(CCCCN)CC(=O)N(CC(=O)N(CC(=O)N(CCCCN)CC(=O)N(CC(=O)N(CC(=O)N(CCCCN)CC(=O)N(CC(=O)N(CC(=O)N(CCCCN)CC(=O)N(CC(N)=O)[C@@H](C)c1ccccc1)[C@@H](C)c1ccccc1)[C@@H](C)c1ccccc1)[C@@H](C)c1ccccc1)[C@@H](C)c1ccccc1)[C@@H](C)c1ccccc1)[C@@H](C)c1ccccc1)c1ccccc1 [1B, H-(Nspe-Nlys-Nspe)4-NH2] (H-[Nspe][Nlys][Nspe][Nspe][Nlys][Nspe][Nspe][Nlys][Nspe][Nspe][Nlys][Nspe]-NH2)",HD50,human erythrocytes,> 100 µM
same,B. subtilis MIC,B. subtilis (ATCC 6633),1.6 µM
same,E. coli MIC,E. coli (ATCC 35218),6.3 µM
same,IC50,[1],4.9 µM
"C[C@H](NCC(=O)N(CCCCN)CC(=O)N(CC(=O)N(CCCCN)CC(=O)N(CCCCN)CC(=O)N(CC(=O)N(CC(=O)N(CCCCN)CC(=O)N(CC(=O)N(CCCCN)CC(=O)N(CCCCN)CC(=O)N(CC(N)=O)[C@@H](C)c1ccccc1)[C@@H](C)c1ccccc1)[C@@H](C)c1ccccc1)[C@@H](C)c1ccccc1)[C@@H](C)c1ccccc1)c1ccccc1 [1B-Nlys4,10, H-(Nspe-Nlys-Nspe-Nlys-Nlys-Nspe)2-NH2] (H-[Nspe][Nlys][Nspe][Nlys][Nlys][Nspe][Nspe][Nlys][Nspe][Nlys][Nlys][Nspe]-NH2)",HD10,human erythrocytes,>200/>200 μM
same,HD50,human erythrocytes,>200/>200 μM
same,B. subtilis MIC,B. subtilis (ATCC 6633),0.78 µM
same,E. coli MIC,E. coli (ATCC 35218),50 µM
same,IC50,[1],83 µM
"C[C@H](NCC(=O)N(CC(=O)N(CCCCN)CC(=O)N(CC(=O)N(CC(=O)N(CCCCN)CC(=O)N(CC(=O)N(CC(=O)N(CCCCN)CC(=O)N(CC(=O)N(CC(=O)N(CCCCN)CC(N)=O)[C@@H](C)c1ccccc1)[C@@H](C)c1ccccc1)[C@@H](C)c1ccccc1)[C@@H](C)c1ccccc1)[C@@H](C)c1ccccc1)[C@@H](C)c1ccccc1)[C@@H](C)c1ccccc1)c1ccccc1 [1C, H-(Nspe-Nspe-Nlys)4-NH2] (H-[Nspe][Nspe][Nlys][Nspe][Nspe][Nlys][Nspe][Nspe][Nlys][Nspe][Nspe][Nlys]-NH2)",HD10,human erythrocytes,25 µM
same,HD50,human erythrocytes,> 100 µM
same,B. subtilis MIC,B. subtilis (ATCC 6633),1.6 µM
same,E. coli MIC,E. coli (ATCC 35218),6.3 µM
same,IC50,[1],5.6 µM
"C[C@@H](c1ccccc1)N(CC(=O)N(CC(=O)N(CCCCN)CC(=O)N(CC(=O)N(CC(=O)N(CCCCN)CC(=O)N(CC(=O)N(CC(=O)N(CCCCN)CC(=O)N(CC(=O)N(CC(N)=O)Cc1ccccc1)Cc1ccccc1)Cc1ccccc1)Cc1ccccc1)Cc1ccccc1)Cc1ccccc1)Cc1ccccc1)C(=O)CNCCCCN [1ach-Nspe2, H-(Nlys-Nspe-Npm)-(Nlys-Npm-Npm)3-NH2] (H-[Nlys][Nspe][Nphe][Nlys][Nphe][Nphe][Nlys][Nphe][Nphe][Nlys][Nphe][Nphe]-NH2)",HD10,human erythrocytes,160 µM
same,HD50,human erythrocytes,> 200 µM
same,B. subtilis MIC,B. subtilis (ATCC 6633),0.78 µM
same,E. coli MIC,E. coli (ATCC 35218),6.3 µM
same,IC50,[1],11 µM
"C[C@@H](c1ccccc1)N(CC(N)=O)C(=O)CN(C(=O)CN(CCCCN)C(=O)CN(C(=O)CN(C(=O)CNCCCCN)[C@@H](C)c1ccccc1)[C@@H](C)c1ccccc1)[C@@H](C)c1ccccc1 [16 mer, H-(Nlys-Nspe-Nspe)2-NH2] (H-[Nlys][Nspe][Nspe][Nlys][Nspe][Nspe]-NH2)",HD10,human erythrocytes,>220/>220 μM
same,HD50,human erythrocytes,>220/>220 μM
same,HD10 (10% hemolytic dose),"human erythrocytes; red cells of human, 1 h",>220/>220 μM
same,HD50 (50% hemolytic dose),"human erythrocytes; red cells of human, 1 h",>220/>220 μM
same,B. subtilis MIC,B. subtilis,27* μM
same,E. coli MIC,E. coli,27* μM
same,C. albicans MIC,[2],>100 µM
"C[C@@H](c1ccccc1)N(CC(=O)N(CCCCN)CC(=O)N(CC(=O)N(CC(=O)N(CCCCN)CC(=O)N(CC(=O)N(CC(=O)N(CCCCN)CC(N)=O)[C@@H](C)c1ccccc1)[C@@H](C)c1ccccc1)[C@@H](C)c1ccccc1)[C@@H](C)c1ccccc1)C(=O)CN(C(=O)CNCCCCN)[C@@H](C)c1ccccc1 [110mer, H-(Nlys-Nspe-Nspe)3-Nlys-NH2] (H-[Nlys][Nspe][Nspe][Nlys][Nspe][Nspe][Nlys][Nspe][Nspe][Nlys]-NH2)",HD50,human erythrocytes,>200/>200 μM
same,B. subtilis MIC,B. subtilis (ATCC 6633),0.78 µM
same,E. coli MIC,E. coli (ATCC 35218),12.5 µM
same,IC50,[1],54 µM
"C[C@@H](c1ccccc1)N(CC(=O)N(CCCCN)CC(=O)N(CC(=O)N(CC(=O)N(CCCCN)CC(=O)N(CC(=O)N(CC(=O)N(CCCCN)CC(=O)N(CC(=O)N(CC(=O)N(CCCCN)CC(N)=O)[C@@H](C)c1ccccc1)[C@@H](C)c1ccccc1)[C@@H](C)c1ccccc1)[C@@H](C)c1ccccc1)[C@@H](C)c1ccccc1)[C@@H](C)c1ccccc1)C(=O)CN(C(=O)CNCCCCN)[C@@H](C)c1ccccc1 [113mer, H-(Nlys-Nspe-Nspe)4-Nlys-NH2] (H-[Nlys][Nspe][Nspe][Nlys][Nspe][Nspe][Nlys][Nspe][Nspe][Nlys][Nspe][Nspe][Nlys]-NH2)",HD10,human erythrocytes,21 µM
same,HD50,human erythrocytes,> 100 µM
same,B. subtilis MIC,B. subtilis (ATCC 6633),0.78 µM
same,E. coli MIC,E. coli (ATCC 35218),3.1 µM
same,IC50,[1],5.6 µM
